Experimental data taken from ChEMBL document CHEMBL1146413, “New polyhalogenated monoterpenes from the sea hare Aplysia punctata” (1997).
In brackets after ≈: the same amount, converted by molar mass.

Legend:
Type in all cases: functional
Conditions in all cases: read-out: ED50 (the source's name)
[1] = system: P388; test: Cytotoxicity against mouse P388 cells
[2] = system: HT-29; test: Cytotoxicity against human HT-29 cells
[3] = system: A549; test: Cytotoxicity against human A549 cells
[4] = system: SK-MEL-28; test: Cytotoxicity against human SK-MEL-28 cells

SMILES	EC50 [1]	EC50 [2]	EC50 [3]	EC50 [4]
CC(=O)OCCC(C)C(=O)CC/C(=C/Cl)C(Cl)Cl (configuration not stated)	2.5 µg/mL (≈ 7.92 µM)	2.5 µg/mL (≈ 7.92 µM)	1.5 µg/mL (≈ 4.75 µM)	1.5 µg/mL (≈ 4.75 µM)
CC(=O)OCC/C(C)=C(Cl)/C=C/C(C)(Cl)CBr (configuration not stated)	2.5 µg/mL (≈ 7.27 µM)	2.5 µg/mL (≈ 7.27 µM)	1.5 µg/mL (≈ 4.36 µM)	1.5 µg/mL (≈ 4.36 µM)
CC(=O)OCCC(C)C(=O)CC/C(=C\Cl)C(Cl)Cl (configuration not stated)	2.5 µg/mL (≈ 7.92 µM)	2.5 µg/mL (≈ 7.92 µM)	1.5 µg/mL (≈ 4.75 µM)	1.5 µg/mL (≈ 4.75 µM)
